Reference: PubChem BioAssay (NCI)
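These data come from cells grown in 96-well plates and exposed to compound for 48 hours at five concentrations. GI50 = concentration required for 50% inhibition of growth. Definition used: TGI = concentration required for complete inhibition of growth.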

How the values were obtained:
Assay in all cases: NCI tumour cell line growth inhibition, 48 h
[1] = test system: A498 renal
[2] = test system: T-47D breast
[3] = test system: SF-295 CNS
[4] = test system: MOLT-4 leukemia
[5] = test system: MDA-MB-231 breast
[6] = test system: SF-539 CNS
[7] = test system: NCI-H522 lung
[8] = test system: OVCAR-8 ovarian
[9] = test system: M14 melanoma
[10] = test system: ACHN renal
[11] = test system: MALME-3M melanoma
[12] = test system: A549 NSCLC
[13] = test system: 786-0 renal
[14] = test system: LOX IMVI melanoma
[15] = test system: CCRF-CEM leukemia
[16] = test system: SNB-75 CNS
[17] = test system: RXF 393 renal
[18] = test system: UO-31 renal
[19] = test system: SK-MEL-28 melanoma
[20] = test system: SN12C renal
[21] = test system: SK-OV-3 ovarian
[22] = test system: HS 578T breast
[23] = test system: TK-10 renal
[24] = test system: HCC-2998 colon
[25] = test system: HOP-62 NSCLC
[26] = test system: NCI-H226 lung
[27] = test system: NCI-H23 lung
[28] = test system: HT29 colon
[29] = test system: MCF7 breast
[30] = test system: NCI/ADR-RES ovarian
[31] = test system: OVCAR-5 ovarian
[32] = test system: NCI-H460 lung
[33] = test system: RPMI-8226 leukemia
[34] = test system: MDA-MB-435
[35] = test system: SNB-19 CNS
[36] = test system: OVCAR-4 ovarian
[37] = test system: BT-549 breast
[38] = test system: DU-145 prostate
[39] = test system: SW-620 colon
[40] = test system: SK-MEL-5 melanoma
[41] = test system: COLO 205 colon
[42] = test system: K-562 leukemia
[43] = test system: PC-3 prostate
[44] = test system: HCT-15 colon
[45] = test system: UACC-257 melanoma
[46] = test system: SK-MEL-2 melanoma
[47] = test system: EKVX NSCLC
[48] = test system: HCT-116 colon
[49] = test system: HOP-92 NSCLC
[50] = test system: KM12 colon
[51] = test system: SF-268 CNS
[52] = test system: UACC-62 melanoma
[53] = test system: IGROV1 ovarian
[54] = test system: CAKI-1 renal
[55] = test system: HL-60(TB) leukemia
[56] = test system: U251 CNS

With `CS(=O)(=O)Nc1cc(-c2ccc3ncc(C#N)c(Nc4cccc(Cl)c4F)c3c2)cnc1Cl` the GI50 [1] was 93.7 nM, the TGI [1] was 471 nM and the GI50 [2] was 101 nM. For the same compound, the TGI [2] was 4790 nM, the GI50 [3] was 267 nM and the TGI [3] was 3250 nM. For the same compound, the GI50 [4] was 82.3 nM, the TGI [4] was 1580 nM and the GI50 [5] was 333 nM. The TGI [5] was 2310 nM, the GI50 [6] was 181 nM and the TGI [6] was 2860 nM. It also gave a GI50 [7] of 255 nM, a TGI [7] of 2670 nM and a GI50 [8] of 369 nM. It also gave a TGI [8] of 4230 nM, a GI50 [9] of 308 nM and a TGI [9] of 3580 nM. The GI50 [10] was 591 nM, the TGI [10] was 21200 nM and the GI50 [11] was 68.3 nM. For the same compound, the TGI [11] was 708 nM, the GI50 [12] was 763 nM and the TGI [12] was 2840 nM. It also gave a GI50 [13] of 366 nM, a TGI [13] of 3550 nM and a GI50 [14] of 107 nM. For the same compound, the TGI [14] was 641 nM, the GI50 [15] was 90.6 nM and the TGI [15] was > 39900 nM. For the same compound, the GI50 [16] was < 13.1 nM, the TGI [16] was 395 nM and the GI50 [17] was 76.8 nM. The TGI [17] was 910 nM, the GI50 [18] was 205 nM and the TGI [18] was 2920 nM. It also gave a GI50 [19] of 189 nM, a TGI [19] of 2820 nM and a GI50 [20] of 152 nM. The TGI [20] was 39400 nM, the GI50 [21] was 360 nM and the TGI [21] was 2610 nM. It also gave a GI50 [22] of 56.7 nM, a TGI [22] of 537 nM and a GI50 [23] of 84.7 nM. For the same compound, the TGI [23] was 926 nM, the GI50 [24] was 507 nM and the TGI [24] was 2190 nM. For the same compound, the GI50 [25] was 198 nM, the TGI [25] was 7800 nM and the GI50 [26] was 556 nM. It also gave a TGI [26] of 11100 nM, a GI50 [27] of 158 nM and a TGI [27] of 9360 nM. The GI50 [28] was 329 nM, the TGI [28] was 2320 nM and the GI50 [29] was 64.3 nM. For the same compound, the TGI [29] was 4030 nM, the GI50 [30] was 1250 nM and the TGI [30] was 20700 nM. For the same compound, the GI50 [31] was 749 nM, the TGI [31] was 3920 nM and the GI50 [32] was 391 nM. The TGI [32] was 10900 nM, the GI50 [33] was 94.7 nM and the TGI [33] was 1170 nM. It also gave a GI50 [34] of 277 nM, a TGI [34] of 3000 nM and a GI50 [35] of 288 nM. It also gave a TGI [35] of 3110 nM, a GI50 [36] of 495 nM and a TGI [36] of 8090 nM. For the same compound, the GI50 [37] was 56 nM, the TGI [37] was 959 nM and the GI50 [38] was 289 nM. It also gave a TGI [38] of 5460 nM, a GI50 [39] of 73.3 nM and a TGI [39] of 1820 nM. It also gave a GI50 [40] of 49.2 nM, a TGI [40] of 182 nM and a GI50 [41] of 219 nM. The TGI [41] was 955 nM, the GI50 [42] was 115 nM and the TGI [42] was > 100000 nM. For the same compound, the GI50 [43] was 260 nM, the TGI [43] was 3600 nM and the GI50 [44] was 111 nM. It also gave a TGI [44] of 2870 nM, a GI50 [45] of 400 nM and a TGI [45] of 4540 nM. For the same compound, the GI50 [46] was 29.2 nM, the TGI [46] was 177 nM and the GI50 [47] was 367 nM. The TGI [47] was 2630 nM, the GI50 [48] was 66.5 nM and the TGI [48] was 1140 nM. The GI50 [49] was 21.9 nM, the TGI [49] was 348 nM and the GI50 [50] was 324 nM. The TGI [50] was 2090 nM, the GI50 [51] was 87.6 nM and the TGI [51] was 1810 nM. The GI50 [52] was 120 nM, the TGI [52] was 1580 nM and the GI50 [53] was 101 nM. For the same compound, the TGI [53] was 869 nM, the GI50 [54] was 72.9 nM and the TGI [54] was 1590 nM. The GI50 [55] was 94 nM, the GI50 [56] was 59.1 nM and the TGI [56] was 1280 nM.
